# In ChEMBL document CHEMBL3045835, “Comparative study of conventional and microwave-assisted synthesis of some Schiff bases and their potential as antimicrobial agents” (2012):
# Experiments:
# Format in all cases: functional
# [1] = system: Pseudomonas aeruginosa; assay: Antibacterial activity against Pseudomonas aeruginosa MTCC 424 at 500 ug/ml after 18 hr by cup-plate method; conditions: MTCC 424, 18 h, read-out: DIZ
# [2] = system: Pseudomonas aeruginosa; assay: Antibacterial activity against Pseudomonas aeruginosa MTCC 424 at 200 ug/ml after 18 hr by cup-plate method; conditions: MTCC 424, 18 h, read-out: DIZ
# [3] = system: Pseudomonas aeruginosa; assay: Antibacterial activity against Pseudomonas aeruginosa MTCC 424 at 100 ug/ml after 18 hr by cup-plate method; conditions: MTCC 424, 18 h, read-out: DIZ
# [4] = system: Micrococcus luteus; assay: Antibacterial activity against Micrococcus luteus MTCC 1538 at 1500 ug/ml after 18 hr by cup-plate method; conditions: MTCC 1538, 18 h, read-out: DIZ
# [5] = system: Micrococcus luteus; assay: Antibacterial activity against Micrococcus luteus MTCC 1538 at 1000 ug/ml after 18 hr by cup-plate method; conditions: MTCC 1538, 18 h, read-out: DIZ
# [6] = system: Micrococcus luteus; assay: Antibacterial activity against Micrococcus luteus MTCC 1538 at 500 ug/ml after 18 hr by cup-plate method; conditions: MTCC 1538, 18 h, read-out: DIZ
# [7] = system: Micrococcus luteus; assay: Antibacterial activity against Micrococcus luteus MTCC 1538 at 200 ug/ml after 18 hr by cup-plate method; conditions: MTCC 1538, 18 h, read-out: DIZ
# [8] = system: Micrococcus luteus; assay: Antibacterial activity against Micrococcus luteus MTCC 1538 at 100 ug/ml after 18 hr by cup-plate method; conditions: MTCC 1538, 18 h, read-out: DIZ
# [9] = system: Bacillus pumilus; assay: Antibacterial activity against Bacillus pumilus MTCC 1456 at 1500 ug/ml after 18 hr by cup-plate method; conditions: MTCC 1456, 18 h, read-out: DIZ
# [10] = system: Bacillus pumilus; assay: Antibacterial activity against Bacillus pumilus MTCC 1456 at 1000 ug/ml after 18 hr by cup-plate method; conditions: MTCC 1456, 18 h, read-out: DIZ
# [11] = system: Bacillus pumilus; assay: Antibacterial activity against Bacillus pumilus MTCC 1456 at 500 ug/ml after 18 hr by cup-plate method; conditions: MTCC 1456, 18 h, read-out: DIZ
# [12] = system: Bacillus pumilus; assay: Antibacterial activity against Bacillus pumilus MTCC 1456 at 200 ug/ml after 18 hr by cup-plate method; conditions: MTCC 1456, 18 h, read-out: DIZ
# [13] = system: Bacillus pumilus; assay: Antibacterial activity against Bacillus pumilus MTCC 1456 at 100 ug/ml after 18 hr by cup-plate method; conditions: MTCC 1456, 18 h, read-out: DIZ
# [14] = system: Bacillus subtilis; assay: Antibacterial activity against Bacillus subtilis MTCC 441 at 1000 ug/ml after 18 hr by cup plate method; conditions: MTCC 441, 18 h, read-out: DIZ
# [15] = system: Bacillus subtilis; assay: Antibacterial activity against Bacillus subtilis MTCC 441 at 1500 ug/ml after 18 hr by cup plate method; conditions: MTCC 441, 18 h, read-out: DIZ
# [16] = system: Bacillus subtilis; assay: Antibacterial activity against Bacillus subtilis MTCC 441 at 500 ug/ml after 18 hr by cup plate method; conditions: MTCC 441, 18 h, read-out: DIZ
# [17] = system: Bacillus subtilis; assay: Antibacterial activity against Bacillus subtilis MTCC 441 at 200 ug/ml after 18 hr by cup plate method; conditions: MTCC 441, 18 h, read-out: DIZ
# [18] = system: Bacillus subtilis; assay: Antibacterial activity against Bacillus subtilis MTCC 441 at 100 ug/ml after 18 hr by cup plate method; conditions: MTCC 441, 18 h, read-out: DIZ
# [19] = system: Staphylococcus aureus; assay: Antibacterial activity against Staphylococcus aureus MTCC 1430 at 1500 ug/ml after 18 hr by cup-plate method; conditions: MTCC 1430, 18 h, read-out: DIZ
# [20] = system: Staphylococcus aureus; assay: Antibacterial activity against Staphylococcus aureus MTCC 1430 at 1000 ug/ml after 18 hr by cup-plate method; conditions: MTCC 1430, 18 h, read-out: DIZ
# [21] = system: Staphylococcus aureus; assay: Antibacterial activity against Staphylococcus aureus MTCC 1430 at 500 ug/ml after 18 hr by cup-plate method; conditions: MTCC 1430, 18 h, read-out: DIZ
# [22] = system: Staphylococcus aureus; assay: Antibacterial activity against Staphylococcus aureus MTCC 1430 at 200 ug/ml after 18 hr by cup-plate method; conditions: MTCC 1430, 18 h, read-out: DIZ
# [23] = system: Staphylococcus aureus; assay: Antibacterial activity against Staphylococcus aureus MTCC 1430 at 100 ug/ml after 18 hr by cup-plate method; conditions: MTCC 1430, 18 h, read-out: DIZ
# [24] = system: Penicillium chrysogenum; assay: Antifungal activity against Penicillium chrysogenum MTCC 161 after 24 hr by broth dilution method; conditions: MTCC 161, 24 h
# [25] = system: Aspergillus niger; assay: Antifungal activity against Aspergillus niger MTCC 2546 after 24 hr by broth dilution method; conditions: MTCC 2546, 24 h
# [26] = system: Escherichia coli; assay: Antibacterial activity against Escherichia coli MTCC 1573 after 24 hr by broth dilution method; conditions: MTCC 1573, 24 h
# [27] = system: Pseudomonas fluorescens; assay: Antibacterial activity against Pseudomonas fluorescens MTCC 2421 after 24 hr by broth dilution method; conditions: MTCC 2421, 24 h
# [28] = system: Pseudomonas aeruginosa; assay: Antibacterial activity against Pseudomonas aeruginosa MTCC 424 after 24 hr by broth dilution method; conditions: MTCC 424, 24 h
# [29] = system: Micrococcus luteus; assay: Antibacterial activity against Micrococcus luteus MTCC 1538 after 24 hr by broth dilution method; conditions: MTCC 1538, 24 h
# [30] = system: Bacillus pumilus; assay: Antibacterial activity against Bacillus pumilus MTCC 1456 after 24 hr by broth dilution method; conditions: MTCC 1456, 24 h
# [31] = system: Staphylococcus aureus; assay: Antibacterial activity against Staphylococcus aureus MTCC 1430 after 24 hr by broth dilution method; conditions: MTCC 1430, 24 h
# [32] = system: Bacillus subtilis; assay: Antibacterial activity against Bacillus subtilis MTCC 441 after 24 hr by broth dilution method; conditions: MTCC 441, 24 h
# [33] = system: Pseudomonas fluorescens; assay: Antibacterial activity against Pseudomonas fluorescens MTCC 2421 at 1000 ug/ml after 18 hr by cup-plate method; conditions: MTCC 2421, 18 h, read-out: DIZ
# [34] = system: Pseudomonas fluorescens; assay: Antibacterial activity against Pseudomonas fluorescens MTCC 2421 at 1500 ug/ml after 18 hr by cup-plate method; conditions: MTCC 2421, 18 h, read-out: DIZ
# [35] = system: Pseudomonas fluorescens; assay: Antibacterial activity against Pseudomonas fluorescens MTCC 2421 at 500 ug/ml after 18 hr by cup-plate method; conditions: MTCC 2421, 18 h, read-out: DIZ
# [36] = system: Pseudomonas fluorescens; assay: Antibacterial activity against Pseudomonas fluorescens MTCC 2421 at 200 ug/ml after 18 hr by cup-plate method; conditions: MTCC 2421, 18 h, read-out: DIZ
# [37] = system: Penicillium chrysogenum; assay: Antifungal activity against Penicillium chrysogenum MTCC 161 at 1500 ug/ml after 18 hr by cup-plate method; conditions: MTCC 161, 18 h, read-out: DIZ
# [38] = system: Penicillium chrysogenum; assay: Antifungal activity against Penicillium chrysogenum MTCC 161 at 1000 ug/ml after 18 hr by cup-plate method; conditions: MTCC 161, 18 h, read-out: DIZ
# [39] = system: Penicillium chrysogenum; assay: Antifungal activity against Penicillium chrysogenum MTCC 161 at 500 ug/ml after 18 hr by cup-plate method; conditions: MTCC 161, 18 h, read-out: DIZ
# [40] = system: Penicillium chrysogenum; assay: Antifungal activity against Penicillium chrysogenum MTCC 161 at 200 ug/ml after 18 hr by cup-plate method; conditions: MTCC 161, 18 h, read-out: DIZ
# [41] = system: Penicillium chrysogenum; assay: Antifungal activity against Penicillium chrysogenum MTCC 161 at 100 ug/ml after 18 hr by cup-plate method; conditions: MTCC 161, 18 h, read-out: DIZ
# [42] = system: Aspergillus niger; assay: Antifungal activity against Aspergillus niger MTCC 2546 at 1000 ug/ml after 18 hr by cup-plate method; conditions: MTCC 2546, 18 h, read-out: DIZ
# [43] = system: Aspergillus niger; assay: Antifungal activity against Aspergillus niger MTCC 2546 at 1500 ug/ml after 18 hr by cup-plate method; conditions: MTCC 2546, 18 h, read-out: DIZ
# [44] = system: Aspergillus niger; assay: Antifungal activity against Aspergillus niger MTCC 2546 at 500 ug/ml after 18 hr by cup-plate method; conditions: MTCC 2546, 18 h, read-out: DIZ
# [45] = system: Aspergillus niger; assay: Antifungal activity against Aspergillus niger MTCC 2546 at 100 ug/ml after 18 hr by cup-plate method; conditions: MTCC 2546, 18 h, read-out: DIZ
# [46] = system: Aspergillus niger; assay: Antifungal activity against Aspergillus niger MTCC 2546 at 200 ug/ml after 18 hr by cup-plate method; conditions: MTCC 2546, 18 h, read-out: DIZ
# [47] = system: Escherichia coli; assay: Antibacterial activity against Escherichia coli MTCC 1573 at 1500 ug/ml after 18 hr by cup-plate method; conditions: MTCC 1573, 18 h, read-out: DIZ
# [48] = system: Escherichia coli; assay: Antibacterial activity against Escherichia coli MTCC 1573 at 500 ug/ml after 18 hr by cup-plate method; conditions: MTCC 1573, 18 h, read-out: DIZ
# [49] = system: Escherichia coli; assay: Antibacterial activity against Escherichia coli MTCC 1573 at 1000 ug/ml after 18 hr by cup-plate method; conditions: MTCC 1573, 18 h, read-out: DIZ
# [50] = system: Escherichia coli; assay: Antibacterial activity against Escherichia coli MTCC 1573 at 200 ug/ml after 18 hr by cup-plate method; conditions: MTCC 1573, 18 h, read-out: DIZ
# [51] = system: Escherichia coli; assay: Antibacterial activity against Escherichia coli MTCC 1573 at 100 ug/ml after 18 hr by cup-plate method; conditions: MTCC 1573, 18 h, read-out: DIZ
# [52] = system: Pseudomonas fluorescens; assay: Antibacterial activity against Pseudomonas fluorescens MTCC 2421 at 100 ug/ml after 18 hr by cup-plate method; conditions: MTCC 2421, 18 h, read-out: DIZ
# [53] = system: Pseudomonas aeruginosa; assay: Antibacterial activity against Pseudomonas aeruginosa MTCC 424 at 1500 ug/ml after 18 hr by cup-plate method; conditions: MTCC 424, 18 h, read-out: DIZ
# [54] = system: Pseudomonas aeruginosa; assay: Antibacterial activity against Pseudomonas aeruginosa MTCC 424 at 1000 ug/ml after 18 hr by cup-plate method; conditions: MTCC 424, 18 h, read-out: DIZ
compound,measurement,setting,value
O=c1c(/C=N/c2ccc(Cl)cc2)coc2ccccc12,zone of inhibition at 500 µg/mL,[1],19 mm
same,zone of inhibition at 200 µg/mL,[2],18 mm
same,zone of inhibition at 100 µg/mL,[3],16 mm
same,zone of inhibition at 1500 µg/mL,[4],24 mm
same,zone of inhibition at 1000 µg/mL,[5],23 mm
same,zone of inhibition at 500 µg/mL,[6],21 mm
same,zone of inhibition at 200 µg/mL,[7],19 mm
same,zone of inhibition at 100 µg/mL,[8],16 mm
same,zone of inhibition at 1500 µg/mL,[9],19 mm
same,zone of inhibition at 1000 µg/mL,[10],18 mm
same,zone of inhibition at 500 µg/mL,[11],17 mm
same,zone of inhibition at 200 µg/mL,[12],15 mm
same,zone of inhibition at 100 µg/mL,[13],12 mm
same,zone of inhibition at 1000 µg/mL,[14],19 mm
same,zone of inhibition at 1500 µg/mL,[15],21 mm
same,zone of inhibition at 500 µg/mL,[16],17 mm
same,zone of inhibition at 200 µg/mL,[17],15 mm
same,zone of inhibition at 100 µg/mL,[18],13 mm
same,zone of inhibition at 1500 µg/mL,[19],21 mm
same,zone of inhibition at 1000 µg/mL,[20],18 mm
same,zone of inhibition at 500 µg/mL,[21],16 mm
same,zone of inhibition at 200 µg/mL,[22],14 mm
same,zone of inhibition at 100 µg/mL,[23],12 mm
same,MIC,[24],200 µg/mL
same,MIC,[25],200 µg/mL
same,MIC,[26],400 µg/mL
same,MIC,[27],300 µg/mL
same,MIC,[28],200 µg/mL
same,MIC,[29],200 µg/mL
same,MIC,[30],200 µg/mL
same,MIC,[31],300 µg/mL
same,MIC,[32],300 µg/mL
same,zone of inhibition at 1000 µg/mL,[33],16 mm
same,zone of inhibition at 1500 µg/mL,[34],18 mm
same,zone of inhibition at 500 µg/mL,[35],14 mm
same,zone of inhibition at 200 µg/mL,[36],12 mm
same,zone of inhibition at 1500 µg/mL,[37],21 mm
same,zone of inhibition at 1000 µg/mL,[38],20 mm
same,zone of inhibition at 500 µg/mL,[39],19 mm
same,zone of inhibition at 200 µg/mL,[40],17 mm
same,zone of inhibition at 100 µg/mL,[41],15 mm
same,zone of inhibition at 1000 µg/mL,[42],20 mm
same,zone of inhibition at 1500 µg/mL,[43],21 mm
same,zone of inhibition at 500 µg/mL,[44],19 mm
same,zone of inhibition at 100 µg/mL,[45],16 mm
same,zone of inhibition at 200 µg/mL,[46],18 mm
same,zone of inhibition at 1500 µg/mL,[47],20 mm
same,zone of inhibition at 500 µg/mL,[48],17 mm
same,zone of inhibition at 1000 µg/mL,[49],19 mm
same,zone of inhibition at 200 µg/mL,[50],16 mm
same,zone of inhibition at 100 µg/mL,[51],13 mm
same,zone of inhibition at 100 µg/mL,[52],11 mm
same,zone of inhibition at 1500 µg/mL,[53],21 mm
same,zone of inhibition at 1000 µg/mL,[54],20 mm
